Measurements from PubChem BioAssay AID651630 (Sanford-Burnham Center for Chemical Genomics, 2012).
Activity calls are given as the source filed them.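 Rule for the calls: active = lipid-stain IC50 at or below a set limit, with nuclear-stain toxicity IC50 at least five times higher; inactive = the rest.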

Columns and labels:
DAPI = experiment: TAG lipid buildup inhibition with viability readout – cell-based, panel, Nile Red and DAPI fluorescence, H9c2, dose response (AID 651630); details: H9c2 cells, DAPI nuclear fluorescence (cytotoxicity counter-readout), oleic acid;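 note: cells exposed to compound overnight before fixation and staining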
TAG = experiment: as above; details: H9c2 cells, Nile Red TAG fluorescence, oleic acid

COc1ccc(-c2sc3ccc(N4CCOCC4)cc3c2C#CCCO)cc1
IC50 cytotoxicity (DAPI nuclear signal decrease) (DAPI; mean of runs): > 25 µM (inactive)
IC50 cytotoxicity (DAPI nuclear signal decrease) (DAPI; run 1): > 25 µM
IC50 cytotoxicity (DAPI nuclear signal decrease) (DAPI; run 2): > 25 µM
IC50 (TAG; mean of runs): > 25 µM (inactive)
IC50 (TAG; run 1): > 25 µM
IC50 (TAG; run 2): > 25 µM

CCOC(=O)c1ccc(NC(=O)c2nc[nH]c2C(=O)NCCCCNC(=O)c2[nH]cnc2C(=O)Nc2ccc(C(=O)OCC)cc2)cc1
IC50 cytotoxicity (DAPI nuclear signal decrease) (DAPI; run 1): > 25 µM
IC50 cytotoxicity (DAPI nuclear signal decrease) (DAPI; run 2): > 25 µM
IC50 (TAG; mean of runs): 3.89 µM
IC50 (TAG; run 1): 3.09 µM
IC50 (TAG; run 2): 4.69 µM

CC(C)NC(=O)N(C)C[C@H]1Oc2cc(C#Cc3ccc(F)cc3)ccc2S(=O)(=O)N([C@H](C)CO)C[C@H]1C
IC50 cytotoxicity (DAPI nuclear signal decrease) (DAPI; mean of runs): > 25 µM (inactive)
IC50 cytotoxicity (DAPI nuclear signal decrease) (DAPI; run 1): > 25 µM
IC50 cytotoxicity (DAPI nuclear signal decrease) (DAPI; run 2): > 25 µM
IC50 (TAG; mean of runs): 8.39 µM
IC50 (TAG; run 1): 11 µM
IC50 (TAG; run 2): 5.81 µM

O=C(CSc1nc(Nc2ccccc2)nc(N2CCOCC2)n1)N1CCCC1
IC50 cytotoxicity (DAPI nuclear signal decrease) (DAPI; run 1): 22.1 µM
IC50 cytotoxicity (DAPI nuclear signal decrease) (DAPI; run 2): > 25 µM
IC50 (TAG; mean of runs): 12.2 µM
IC50 (TAG; run 1): 11.7 µM
IC50 (TAG; run 2): 12.7 µM

CN(C)CCCn1c(=O)n(CCc2ccccc2)c(=O)c2c3c(sc21)CCCCC3
IC50 cytotoxicity (DAPI nuclear signal decrease) (DAPI; run 1): > 25 µM
IC50 cytotoxicity (DAPI nuclear signal decrease) (DAPI; run 2): 16.2 µM
IC50 (TAG; mean of runs): > 25 µM (inactive)
IC50 (TAG; run 1): > 25 µM
IC50 (TAG; run 2): > 25 µM

N=c1n(CCO)c2ccccc2n1CCOc1ccc(Cl)cc1Cl
IC50 cytotoxicity (DAPI nuclear signal decrease) (DAPI; mean of runs): 22.3 µM (inactive)
IC50 cytotoxicity (DAPI nuclear signal decrease) (DAPI; run 1): 21.4 µM
IC50 cytotoxicity (DAPI nuclear signal decrease) (DAPI; run 2): 23.1 µM
IC50 (TAG; mean of runs): > 25 µM (inactive)
IC50 (TAG; run 1): > 25 µM
IC50 (TAG; run 2): > 25 µM

COc1ccc(-c2cc(C(F)F)n3ncc(C(=O)Nc4cccc(S(=O)(=O)N5CCOCC5)c4)c3n2)cc1
IC50 cytotoxicity (DAPI nuclear signal decrease) (DAPI; mean of runs): > 25 µM (inactive)
IC50 cytotoxicity (DAPI nuclear signal decrease) (DAPI; run 1): > 25 µM
IC50 cytotoxicity (DAPI nuclear signal decrease) (DAPI; run 2): > 25 µM
IC50 (TAG; mean of runs): 13.9 µM
IC50 (TAG; run 1): 17.5 µM
IC50 (TAG; run 2): 10.4 µM

Fc1ccc(Oc2nc(-c3ccccn3)nc3ccccc23)cc1
IC50 cytotoxicity (DAPI nuclear signal decrease) (DAPI; mean of runs): > 25 µM (inactive)
IC50 cytotoxicity (DAPI nuclear signal decrease) (DAPI; run 1): > 25 µM
IC50 cytotoxicity (DAPI nuclear signal decrease) (DAPI; run 2): > 25 µM
IC50 (TAG; mean of runs): > 25 µM (inactive)
IC50 (TAG; run 1): > 25 µM
IC50 (TAG; run 2): > 25 µM

CC(C)CN(C#N)c1nc(N2CCOCC2)nc(N2CCOCC2)n1
IC50 cytotoxicity (DAPI nuclear signal decrease) (DAPI; mean of runs): > 25 µM (inactive)
IC50 cytotoxicity (DAPI nuclear signal decrease) (DAPI; run 1): > 25 µM
IC50 cytotoxicity (DAPI nuclear signal decrease) (DAPI; run 2): > 25 µM
IC50 (TAG; mean of runs): 20.5 µM (inactive)
IC50 (TAG; run 1): 19.4 µM
IC50 (TAG; run 2): 21.5 µM

COc1cccc(Cn2c3ccc(NC(=O)CCc4ccc(F)cc4)cc3c(=O)n2C)c1
IC50 cytotoxicity (DAPI nuclear signal decrease) (DAPI; mean of runs): > 25 µM (inactive)
IC50 cytotoxicity (DAPI nuclear signal decrease) (DAPI; run 1): > 25 µM
IC50 cytotoxicity (DAPI nuclear signal decrease) (DAPI; run 2): > 25 µM
IC50 (TAG; run 1): 20.9 µM
IC50 (TAG; run 2): > 25 µM

CCN(C(=O)COC(=O)c1cc(-c2ccccc2)nc2c1c(C)nn2-c1ccc(C)cc1)C1CCS(=O)(=O)C1 (stereo not given)
IC50 cytotoxicity (DAPI nuclear signal decrease) (DAPI; mean of runs): > 25 µM (inactive)
IC50 cytotoxicity (DAPI nuclear signal decrease) (DAPI; run 1): > 25 µM
IC50 cytotoxicity (DAPI nuclear signal decrease) (DAPI; run 2): > 25 µM
IC50 (TAG; mean of runs): > 25 µM (inactive)
IC50 (TAG; run 1): > 25 µM
IC50 (TAG; run 2): > 25 µM

O=C(Nc1ccc([N+](=O)[O-])cn1)c1cc(-c2cccc(Cl)c2)nc2ccccc12
IC50 cytotoxicity (DAPI nuclear signal decrease) (DAPI; run 1): > 25 µM
IC50 cytotoxicity (DAPI nuclear signal decrease) (DAPI; run 2): > 25 µM
IC50 (TAG; mean of runs): 3.69 µM
IC50 (TAG; run 1): 3.93 µM
IC50 (TAG; run 2): 3.46 µM

CCOC(=O)[C@H]1[C@H]2COc3ccc(Cl)cc3[C@@H]2N2C(=O)c3cc(Cl)ccc3NC(=O)[C@@]12C
IC50 cytotoxicity (DAPI nuclear signal decrease) (DAPI; mean of runs): > 25 µM (inactive)
IC50 cytotoxicity (DAPI nuclear signal decrease) (DAPI; run 1): > 25 µM
IC50 cytotoxicity (DAPI nuclear signal decrease) (DAPI; run 2): > 25 µM
IC50 (TAG; mean of runs): 9.03 µM
IC50 (TAG; run 1): 11.6 µM
IC50 (TAG; run 2): 6.41 µM

CCN(CC)CCNC(=O)C(Cl)=C1C(Cl)=C(Cl)C(Cl)=C1Cl
IC50 cytotoxicity (DAPI nuclear signal decrease) (DAPI; mean of runs): 21.4 µM (inactive)
IC50 cytotoxicity (DAPI nuclear signal decrease) (DAPI; run 1): 20.2 µM
IC50 cytotoxicity (DAPI nuclear signal decrease) (DAPI; run 2): 22.7 µM
IC50 (TAG; mean of runs): > 25 µM (inactive)
IC50 (TAG; run 1): > 25 µM
IC50 (TAG; run 2): > 25 µM

O=C1NC(Cc2ccc(O)cc2)c2nc3ccc(F)cc3c(=O)n2-c2cc3ccccc3cc21 (stereo not given)
IC50 cytotoxicity (DAPI nuclear signal decrease) (DAPI; run 1): > 25 µM
IC50 cytotoxicity (DAPI nuclear signal decrease) (DAPI; run 2): > 25 µM
IC50 (TAG; mean of runs): 2.45 µM
IC50 (TAG; run 1): 2.11 µM
IC50 (TAG; run 2): 2.79 µM

COc1cc(C(=O)N2CCN(c3cc(Cl)ccc3Cl)CC2)cc(OC)c1OC
IC50 cytotoxicity (DAPI nuclear signal decrease) (DAPI; mean of runs): > 25 µM (inactive)
IC50 cytotoxicity (DAPI nuclear signal decrease) (DAPI; run 1): > 25 µM
IC50 cytotoxicity (DAPI nuclear signal decrease) (DAPI; run 2): > 25 µM
IC50 (TAG; mean of runs): > 25 µM (inactive)
IC50 (TAG; run 1): > 25 µM
IC50 (TAG; run 2): > 25 µM

CC(C)c1ccc(Nc2nc(N3CCOCC3)nc(N3CCOCC3)n2)cc1
IC50 cytotoxicity (DAPI nuclear signal decrease) (DAPI; run 1): > 25 µM
IC50 cytotoxicity (DAPI nuclear signal decrease) (DAPI; run 2): > 25 µM
IC50 (TAG; mean of runs): 3.9 µM
IC50 (TAG; run 1): 4.38 µM
IC50 (TAG; run 2): 3.41 µM
